The source of these data is patent US20230040386A1, “URSODEOXYCHOLIC ACID-CONTAINING AGENT FOR TREATING OR PREVENTING PRESBYOPIA” (priority 2018, published 2023).

Each structure is given as a SMILES string.

Common to all, as to type: in vivo, C57BL/6J mice
Test [1] deals with lens. The test is described as follows: Pharmacological Test 7: lens elasticity, tauroursodeoxycholic acid once-daily for 7 days. Here is the method:
(§1) A vehicle comprising 0.1% (w/v) of ethyl pyruvate, 0.269% (w/v) of sodium dihydrogenphosphate monohydrate (NaH2PO4H2O), 0.433% (w/v) of disodium hydrogenphosphate (Na2HPO4), 0.2% (w/v) of hydroxypropyl methylcellulose, 0.5% (w/v) of NaCl was prepared. Tauroursodeoxycholic acid was dissolved with the addition of the vehicle to prepare a 1.0% (w/v) solution. The total amount of each sample to be used in one day was prepared before use. 1) Each test sample (2.5 μL/eye) was instilled into both eyes of 7-month-old C57BL/6J mice with a Pipetman once per day (QD; around 13:30) for 7 days. 2) Twenty-four hours after the final instillation, the mice were euthanized by carbon dioxide inhalation, and then the eyeballs were extracted and rinsed with Hank's balanced salt solution (HBSS). 3) The sclera near the optic nerve was cut with a razor, the lens was removed through the incision, and the removed lens was immersed in HBSS. 4) The lens was placed on a glass slide, and an all-in-one fluorescence microscope BZ-9000 (Keyence) was used to capture an image of the lens (Image a). […] 6) A change in the lens diameter was calculated from Equation 1 wherein the lens diameter of Image a is subtracted from the lens diameter of Image b, as described below. Then, the lens elasticity improvement of each sample group compared with the vehicle control group was calculated from Equation 2 described below. […]

Test [2] concerns lens. The test is described as follows: Pharmacological Test 8: lens elasticity, glycoursodeoxycholic acid once-daily for 7 days. The method, then:
as §1, with “Glycoursodeoxycholic” for “Tauroursodeoxycholic”, “sonicated” for “dissolved”, “suspension.” for “solution.”, “8-month-old” for “7-month-old”, “(image” for “(Image”

Test [3] relates to lens. As to the kind of experiment: Pharmacological Test 6: lens elasticity, ursodeoxycholic acid methyl ester once-daily for 7 days. The settings on record: for Lens elasticity improvement: QD, 7-month-old mice, vs vehicle control. The method, then: A vehicle comprising 0.1% (w/v) of ethyl pyruvate, 0.269% (w/v) of sodium dihydrogenphosphate monohydrate […], 0.433% (w/v) of disodium hydrogenphosphate (Na2HPO4), 0.2% (w/v) of hydroxypropyl methylcellulose, 0.5% (w/v) of NaCl was prepared. Ursodeoxycholic acid methyl ester was sonicated with the addition of the vehicle to prepare a 0.3% (w/v) suspension, a 1.0% (w/v) suspension and a 3.0% (w/v) suspension. The total amount of each sample to be used in one day was prepared before use. 1) Each test sample (2.5 μL/eye) was instilled into both eyes of 7-month-old C57BL/6J mice with a Pipetman once per day (QD; around 13:30) for 7 days. 2) Twenty-four hours after the final instillation, the mice were euthanized by carbon dioxide inhalation, and then the eyeballs were extracted and rinsed with Hank's balanced salt solution (HBSS). 3) The sclera near the optic nerve was cut with a razor, the lens was removed through the incision, and the removed lens was immersed in HBSS. 4) The lens was placed on a glass slide, and an all-in-one fluorescence microscope BZ-9000 (Keyence) was used to capture an image of the lens (Image a). 5) Next, one cover glass (Corning^(registered trade mark) 22×22 mm Square) was placed on the lens, and an image in which the thickness of the lens changed due to the weight was similarly captured (Image b). 6) A change in the lens diameter was calculated from Equation 1 wherein the lens diameter of Image a is subtracted from the lens diameter of Image b, as described below. Then, the lens elasticity improvement of each sample group compared with the vehicle control group was calculated from Equation 2 described below. Each mean of the vehicle control group and each ursodeoxycholic acid methyl ester sample group was based on 9 or 10 eyes. Change in lens diameter=Lens diameter in Image b of each test sample−Lens diameter in Image a of each test sample (Equation 1) Lens elasticity improvement of each sample group=Mean change in lens diameter of each Test sample group−Mean change in lens diameter of Vehicle control group (Equation 2)

For test [4], the system named is lens. As to the kind of experiment: Pharmacological Test 2: lens elasticity after instillation of sodium ursodeoxycholate. Particulars: for Lens elasticity improvement: 2.5 μL/eye, 3 times per day, 12 to 15 days, vs vehicle control. Here is the method:
A vehicle comprising 0.1% (w/v) of ethyl pyruvate, 0.269% (w/v) of sodium dihydrogenphosphate monohydrate (NaH2PO4H2O), 0.433% (w/v) of disodium hydrogenphosphate (Na2HPO4), 0.2% (w/v) of hydroxypropyl methylcellulose, 0.5% (w/v) of NaCl was prepared. Sodium ursodeoxycholate was sonicated with the addition of the vehicle to prepare a 1.5% (w/v) suspension. The resulting 1.5% (w/v) suspension was diluted with the vehicle to prepare a 0.5% (w/v) suspension. Further, the resulting 0.5% (w/v) suspension was diluted with the vehicle to prepare a 0.15% (w/v) suspension. The total amount of each sample to be used in one day was prepared before use. EV06 was sonicated with the addition of the vehicle to prepare a 1.5% (w/v) solution. The total amount of the sample to be used in one day was prepared before use. 1) Each test sample (2.5 μL/eye) was instilled into the right eye of 8-month-old C57BL/6J mice with a Pipetman 3 times per day (around 9:00, 13:00 and 17:00) for 12 to 15 days. 2) After the final instillation, the mice were euthanized by carbon dioxide inhalation, and then the eyeballs were extracted and rinsed with Hank's balanced salt solution (HBSS)). 3) The sclera near the optic nerve was cut with a razor, the lens was removed through the incision, and the removed lens was immersed in HBSS. 4) The lens was placed on a glass slide, and an all-in-one fluorescence microscope BZ-9000 (Keyence) was used to capture an image of the lens (Image a). 5) Next, one cover glass (Corning^(registered trade mark) 22×22 mm Square) was placed on the lens, and an image in which the thickness of the lens changed due to the weight was similarly captured (Image b). 6) A change in the lens diameter was calculated from Equation 1 wherein the lens diameter of Image a is subtracted from the lens diameter of Image b, as described below. Then, the lens elasticity improvement of each sample group compared with the vehicle control group was calculated from Equation 2 described below. The mean of the vehicle control group was based on 5 eyes, the mean of each sodium ursodeoxycholate sample group was based on 10 eyes, and the mean of the EV06 sample group was based on 10 eyes. Change in lens diameter Lens diameter in image b of each test sample−Lens diameter in Image a of each test sample (Equation 1) Lens elasticity improvement of each sample group=Mean change in lens diameter of each Test sample group−Mean change in lens diameter of Vehicle control group (Equation 2)

For test [5], the system named is lens. As to the kind of experiment: Pharmacological Test 3: lens elasticity after instillation of ursodeoxycholic acid (free form). Here is the method:
A vehicle comprising 0.1% (w/v) of ethyl pyruvate, 0.269% (w/v) of sodium dihydrogenphosphate monohydrate (NaH2PO4H2O), 0.433% (w/v) of disodium hydrogenphosphate (Na2HPO4), 0.2% (w/v) of hydroxypropyl methylcellulose, and 0.5% (w/v) of NaCl was prepared. Ursodeoxycholic acid was sonicated with the addition of the vehicle to prepare a 1.5% (w/v) suspension. The resulting 1.5% (w/v) suspension was diluted with the vehicle to prepare a 0.5% (w/v) suspension. Further, the resulting 0.5% (w/v) suspension was diluted with the vehicle to prepare a 0.15% (w/v) suspension. The total amount of each sample to be used in one day was prepared before use. EV06 was sonicated with the addition of the vehicle to prepare a 1.5% (w/v) solution. The total amount of the sample to be used in one day was prepared before use. 1) Each test sample (2.5 μL/eye) was instilled into the right eye of 8-month-old C57BL/6J mice with a Pipetman 3 times per day (around 9:00, 13:00 and 17:00) for 12 to 15 days. 2) After the final instillation, the mice were euthanized by carbon dioxide inhalation, and then the eyeballs were extracted and rinsed with Hank's balanced salt solution (HBSS). 3) The sclera near the optic nerve was cut with a razor, the lens was removed through the incision, and the removed lens was immersed in HBSS. 4) The lens was placed on a glass slide, and an all-in-one fluorescence microscope BZ-9000 (Keyence) was used to capture an image of the lens (Image a). 5) Next, one cover glass (Corning^(registered trade mark) 22×22 mm Square) was placed on the lens, and an image in which the thickness of the lens changed due to the weight was similarly captured (image b). 6) A change in the lens diameter was calculated from Equation 1 wherein the lens diameter of Image a is subtracted from the lens diameter of Image b, as described below. Then, the lens elasticity improvement of each sample group compared with the vehicle control group was calculated from Equation 2 described below. The mean of the vehicle control group was based on 5 eyes, the mean of each ursodeoxycholic acid sample group was based on 10 eyes, and the mean of the EV06 sample group was based on 10 eyes. Change in lens diameter=Lens diameter in Image b of each test sample−Lens diameter in Image a of each test sample (Equation 1) Lens elasticity improvement of each sample group=Mean change in lens diameter of each Test sample group−Mean change in lens diameter of Vehicle control group (Equation 2)

Where [6] appears, read: 1.5% sample group vs EV06 at the same concentration.

On to `C[C@H](CCC(=O)NCCS(=O)(=O)O)[C@H]1CC[C@H]2[C@@H]3[C@@H](O)C[C@@H]4C[C@H](O)CC[C@]4(C)[C@H]3CC[C@]12C` [tauroursodeoxycholic acid, 3α,7β-Dihydroxy-5β-cholan-24-oic Acid N-(2-Sulfoethyl)amide], for which the Lens elasticity improvement in test [1] (1% (w/v) solution, QD, 7-month-old mice, vs vehicle control) was found to be 29.7 μm. For the same compound, the “Lens elasticity improvement, in words” value in test [1] (1% sample instilled once-daily) was “potent lens elasticity improvement”.
In test [2] (1% (w/v) suspension, QD, 8-month-old mice, vs vehicle control), `C[C@H](CCC(=O)NCC(=O)O)[C@H]1CC[C@H]2[C@@H]3[C@@H](O)C[C@@H]4C[C@H](O)CC[C@]4(C)[C@H]3CC[C@]12C` [glycoursodeoxycholic acid, N-(3α,7β-Dihydroxy-5β-cholan-24-oyl)glycine] came in with a Lens elasticity improvement of 20.1 μm. Further, the “Lens elasticity improvement, in words” value in test [2] (1% sample instilled once-daily) is “potent lens elasticity improvement”.
Turning to `COC(=O)CC[C@@H](C)[C@H]1CC[C@H]2[C@@H]3[C@@H](O)C[C@@H]4C[C@H](O)CC[C@]4(C)[C@H]3CC[C@]12C` [ursodeoxycholic acid methyl ester], the results for the Lens elasticity improvement in test [3] (0.3% (w/v) sample), in test [3] (1% (w/v) sample) and in test [3] (3% (w/v) sample) were 13.2 μm, 33.0 μm and 46.5 μm, respectively. Further, the “Lens elasticity improvement, in words” value in test [3] (1% and 3% samples instilled once-daily) is recorded as “potent lens elasticity improvement”.
With `C[C@H](CCC(=O)[O-])[C@H]1CC[C@H]2[C@@H]3[C@@H](O)C[C@@H]4C[C@H](O)CC[C@]4(C)[C@H]3CC[C@]12C.[Na+]` [sodium ursodeoxycholate], the Lens elasticity improvement is listed as 26.5 μm in test [4] (0.15% (w/v) sample), 34.8 μm in test [4] (0.5% (w/v) sample) and 44.7 μm in test [4] (1.5% (w/v) sample). The “Lens elasticity improving effect compared with EV06, in words” value in test [4] (setting [6]) and in test [5] (setting [6]) was “stronger than that of EV06” each time. Besides, the “Lens elasticity improving effect, in words” value was “potent lens elasticity improving effect” in test [4] (all of the 0.15%, 0.5% and 1.5% sample groups); “potent lens elasticity improving effect” in test [5] (all of the 0.15%, 0.5% and 1.5% sample groups (Table 3)).
